Laboratory results published in ChEMBL document CHEMBL5500366, “Discovery of the small molecular inhibitors against sclerostin loop3 as potential anti-osteoporosis agents by structural based virtual screening and molecular design” (Eur J Med Chem, 2024).
Calls of active or inactive are those of the source. No cut-off for these calls is given here.

How the values were obtained:
Sclerostin [1] = biological target: T1, Sclerostin (Homo sapiens, UniProt Q9BQB4); experiment: Binding affinity to SOST (unknown origin) by SPR analysis
T1 sequence (Q9BQB4 whole entry): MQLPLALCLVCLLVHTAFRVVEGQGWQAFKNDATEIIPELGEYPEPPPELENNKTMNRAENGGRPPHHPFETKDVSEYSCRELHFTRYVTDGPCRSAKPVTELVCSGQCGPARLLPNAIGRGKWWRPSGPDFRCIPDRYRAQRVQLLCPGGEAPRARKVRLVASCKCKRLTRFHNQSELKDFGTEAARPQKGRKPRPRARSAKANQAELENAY

Sclerostin [2] = biological target: T1, Sclerostin; experiment: Binding affinity to SOST loop2 (unknown origin) by SPR analysis
[3] = Half-life in sc dosed Sprague-Dawley rat; format: ADME, organism-based; settings: in vivo
Albumin = Albumin (Homo sapiens, UniProt P02768); experiment: Binding affinity to human serum albumin; format: ADME; settings: isolated protein
[4] = Cmax in sc dosed Sprague-Dawley rat; format: ADME, organism-based; settings: in vivo
[5] = AUC in sc dosed Sprague-Dawley rat; format: ADME, organism-based; settings: in vivo
Homo sapiens = species: Homo sapiens; experiment: Binding affinity to FABP (unknown origin)
Sclerostin [6] = biological target: T1, Sclerostin; experiment: Binding affinity to SOST loop3 (unknown origin) by SPR analysis

Sequence of Albumin (P02768 whole entry): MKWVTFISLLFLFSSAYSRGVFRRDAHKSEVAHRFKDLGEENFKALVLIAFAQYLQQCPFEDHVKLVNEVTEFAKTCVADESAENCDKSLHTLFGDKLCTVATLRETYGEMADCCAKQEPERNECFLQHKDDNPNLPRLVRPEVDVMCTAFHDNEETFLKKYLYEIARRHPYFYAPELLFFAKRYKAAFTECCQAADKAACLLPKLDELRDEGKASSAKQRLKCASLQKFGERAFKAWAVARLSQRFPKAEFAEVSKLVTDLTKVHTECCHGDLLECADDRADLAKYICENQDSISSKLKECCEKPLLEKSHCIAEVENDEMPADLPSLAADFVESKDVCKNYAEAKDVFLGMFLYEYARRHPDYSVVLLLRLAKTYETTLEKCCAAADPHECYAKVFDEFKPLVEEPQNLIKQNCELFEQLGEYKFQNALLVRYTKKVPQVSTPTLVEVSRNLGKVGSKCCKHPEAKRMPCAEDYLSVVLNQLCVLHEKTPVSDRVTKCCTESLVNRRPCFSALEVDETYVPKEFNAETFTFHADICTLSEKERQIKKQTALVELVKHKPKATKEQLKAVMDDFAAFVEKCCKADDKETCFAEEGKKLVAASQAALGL

| Kd (Sclerostin [1]) [nM] | Kd (Sclerostin [2]) [nM] | SMILES | also measured |
| --- | --- | --- | --- |
| 1580 | 1840 | Oc1cc(O)c2c(c1)O[C@H](c1ccc(O)c(O)c1)[C@@H](O)C2 [CIANIDANOL] | – |
| 37.7 | – | Nc1nc2c(c(=O)[nH]1)NC(CNc1ccc(C(=O)N[C@@H](CCC(=O)O)C(=O)O)cc1)CN2 (some centres undefined) | Kd (Sclerostin [6]): 42.4 nM |
| 4780 | 3900 | O=C1c2c(O)cc(O)cc2O[C@@H](c2cc(O)c(O)c(O)c2)[C@H]1O | – |

Second part, the compound before the results:

| SMILES | Kd (Sclerostin [1]) [nM] | Kd (Sclerostin [2]) [nM] | also measured |
| --- | --- | --- | --- |
| O=C1c2c(O)cc(O)cc2O[C@@H](c2ccc(O)c(O)c2)[C@H]1O [(+)-EPITAXIFOLIN] | 2630 | – | – |
| O=c1ccc2ccccc2o1 [COUMARIN] | 273 | 231 | – |
| CC(=O)NCC#Cc1ccc(C(=O)NCC(=O)O)cc1 | – | – | half-life [3]: 1.94 h; Activity (Albumin): Not Active; Cmax [4]: 5.81 ng/mL; AUC [5]: 59.2 ng·h/mL; Activity (Homo sapiens): inactive |
